In series [1] the test system is Lgr5-positive colon CSCs. Put plainly: Cell proliferation / chemosensitivity assay (Cell Counting Kit-8). Type of series: cell-based, human. Here is the method:
(§1) Tissues of xenograft were cut with a razor blade in order to prepare single cancer cell suspensions. After the suspensions were incubated at 37° C. for 3 hours in DPBS containing collagenase/dispase (Roche) and DNaseI (Roche), the suspensions were filtered through 40-μm Cell Strainers (BD Biosciences). The cells were suspended in the lysis buffer (BD Biosciences) to remove erythrocytes. The prepared xenograft-derived cells were cultured under 5% CO2 atmosphere at 37° C. in DMEM/F12 (Invitrogen) containing N-2 Supplement (Invitrogen), 20 ng/ml human EGF (Invitrogen), 10 ng/ml human basic fibroblast growth factor (Sigma), 4 μg/ml heparin (Sigma), 4 mg/ml BSA (Invitrogen), 20 μg/ml human insulin zinc solution (Invitrogen), and 2.9 mg/ml glucose (Sigma) (Todaro M, et al. (2007) Cell Stem Cell 1: 389-402). Adherent and floating CSCs were cultured using conventional polystyrene-treated cell culture flasks (BD Biosciences) and Ultra-low attachment cell culture flasks (Corning), respectively.
(§2) Floating and adherent cells were plated at about 100 and 1×10^4 cells/well in 96-well plates, respectively. On days 0 and 3, viable cell counts were determined by the Cell Counting Kit-8 Assay (Doujindo) according to the manufacturer's protocol. Average absorbance on day 0 was taken as 100%. For chemosensitivity assay, floating and adherent cells were plated at about 100 and 1×10^4 cells/well in 96-well plates, respectively. […] After three days of culture in the presence of the agents, the Cell Counting Kit-8 was added to the cells. The average absorbance of cells exposed to DMSO or medium alone was taken as 100%. All experiments were performed in triplicate.
In general terms: Tetrazolium assays rely on reduction of a dye to a coloured formazan, in cell work by metabolically active cells.

For a further series, the system named is Lgr5-negative colon CSCs. Described as above. It is filed as cell-based, human. The conditions noted are these: for proliferation and survival of Lgr5-negative colon CSCs: 10 μg/ml, three days; for resistance of Lgr5-negative CSCs (percentage of viable cells relative to non-treated control): PLR59 and PLR123, cultured three days at each concentration (FIG. 45). On the procedure:
as §1, §2

The test system of series [2] is Lgr5-positive colon CSCs. The experiment in a line: Transition of Lgr5-positive colon CSCs to the Lgr5-negative state after drug exposure (flow cytometry, immunostaining, qPCR). As to conditions: for Lgr5 expression by IHC (antibody 2L36): adherent condition, 24 hours with drug, then 48 hours without drug; for Lgr5 state of drug-resistant cells: three-day exposure of Lgr5-positive colon CSCs. Type of series: cell-based, human. On the procedure:
Colon CSCs were incubated with mouse anti-human Lgr5 antibody (2T15E-2) and then with […] rat anti-mouse IgG antibody (Invitrogen) to stain Lgr5. The aldehyde dehydrogenase activity was measured using the AldeFluor Kit (Stemcell Technologies). Mouse cells were discriminated from human colon CSCs by staining with anti-mouse MHC class I antibody (Abcam), and PE- or APC-labeled goat […] antibody (BioLegend). Dead cells were also removed using the 7-AAD Viability Dye (Beckman Coulter).
Total RNAs were isolated using the RNeasy Mini Kit including DNAase treatment (Qiagen). cDNAs were synthesized using the First-Strand cDNA Synthesis Kit (SABiosciences). Quantitative real-time PCR (QRT-PCR) analysis was performed with the SYBR Green/Rox qPCR (SABiosciences) using the Mx3005P Real-Time PCR System (Stratagene). The fold induction value was calculated according to the 2-ΔΔCt method. GAPDH and ACTB were used as a reference. All experiments were performed in triplicate.
For immunofluorescent cytochemistry, cells were fixed with 4% paraformaldehyde and methanol, and incubated with a mouse anti-human E-cadherin antibody (Abcam), rabbit anti-human Snail antibody (Abcam), or rabbit anti-human β-catenin antibody (Sigma)). Then, the cells were visualized using the AlexaFluor 488-labeled goat anti-mouse IgG antibody or goat anti-rabbit IgG antibody. For immunofluorescent cytochemistry, the fixed cells and thin sections derived from paraffin blocks of xenograft tumors were incubated with a mouse anti-human Lgr5 antibody (2U2E-2) or rabbit anti-human Snail antibody (Abcam), rabbit anti-human HLA-DMA antibody (Sigma), rabbit anti-TMEM173 antibody (Abcam), rabbit anti-human ZMAT3 antibody (Abcam), or rabbit anti-human GPR110 antibody (Abcam). After incubation with the primary antibody, Lgr5 protein was detected with a goat anti-mouse antibody conjugated with polymer-HRP (DAKO) and visualized with AlexaFluor 488-labeled tyramide (Invitrogen), while Snail, HLA-DMA, and TMEM173 proteins were detected with a biotinylated goat anti-rabbit antibody (VECTOR) and visualized with AlexaFluor 568-labeled streptavidin (Invitrogen). These cells and samples were also stained with DAPI (Invitrogen). ZMAT3 and GPR110 proteins were detected with a goat anti-rabbit antibody conjugated with polymer HRP (DAKO) and visualized with diaminobenzidine. The cells and samples were stained with Mayer's hematoxylin (Muto Pure Chemicals Co.).
In addition, the present inventors carried out examinations to assess whether Lgr5-negative colon CSCs undergo a transition into an Lgr5-positive state. […] On the other hand, when Lgr5-positive adherent colon CSCs were cultured in an ultra low adherent plate, the present inventors observed that some of the cells halted their growth and formed a spheroid-like structure and that the Lgr5 mRNA level was very low (FIGS. 12 and 33). The transition from the Lgr5-positive to Lgr5-negative state (and the reverse) was also confirmed by observations using a single cell in culture. […] When single Lgr5-negative cells prepared via irinotecan treatment were individually cultured in a multi-well plate in the absence of irinotecan, 19 to 43% of the cells underwent a transition into the Lgr5-positive state within four days (FIG. 47 and Table 5).
Lgr5-positive cells were incubated under an adherent condition in the presence of 5-FU or oxaliplatin for 24 hours, and then cultured in the absence of the drug for 48 hours. The cells were analyzed for the expression of Lgr5 by IHC using an anti-Lgr5 antibody (antibody 2L36). […] Next, Lgr5-negative cells sorted using MoFlo XDP cell sorter and treated with 5-FU or oxaliplatin were cultured for four days in the absence of the drug. The cells were analyzed for Lgr5 expression.
On the technique in general: A flow cytometer gives signals particle by particle.

In series [3] the test system is tumors derived from LGR5-positive CSCs (PLR123). The experiment in a line: Irinotecan treatment of NOG mice bearing tumors derived from Lgr5-positive CSCs. It is filed as in vivo. On the procedure:
Mice bearing tumors derived from LGR5-positive CSCs (PLR123) were treated with irinotecan, and their tumors were observed. Irinotecan or vehicle was administered to mice at days 12, 15, and 18 after tumor grafting. Scale bar represents 25 μm.
FIG. 53 Irinotecan was administered at a dose of 120 mg/kg/day to NOG mice at days 12, 15, and 18 after grafting tumors derived from LGR5-positive CSCs (PLR123). This figure is a graph showing tumor volumes in control mice administered with vehicle (closed diamond) and mice administered with irinotecan (closed square or triangle). Each value represents mean±standard deviation.
FIG. 54 is a graph showing the numbers of Lgr5-positive and HLA-DMA-positive cells in xenograft tumor tissues. Thin sections of tissues were treated with Lgr5 antibody and HLA-DMA antibody, and then the numbers of Lgr5-positive and HLA-DMA-positive cells were counted. Values represent the total numbers of cells counted for respective groups (n=3).
To probe the possibility of in vivo transition to a growth inhibitor-resistant state, irinotecan was administered at the maximum tolerated dose (MTD) (120 mg/kg) into the peritoneal cavities of NOG mice bearing tumors derived from Lgr5-positive CSCs. […] By contrast, in vehicle-treated control mice, about one third of cancer cells were positive for Lgr5 in both ductal and budding areas (FIG. 52). Both Lgr5-positive cells and HLA-DMA-positive and Lgr5-negative cells were positive for EREG, and were identified to be CSCs (FIG. 52). After irinotecan treatment, Lgr5-positive cells appeared again (FIG. 52). Furthermore, xenografts were excised from mice on day 21 after transplantation of irinotecan-treated or non-treated Lgr5-positive cells. Sections from the xenografts were double-stained with an anti-Ki67 antibody and an anti-Lgr5 antibody or an anti-HLA-DMA antibody. The result of double staining for Ki67 and Lgr5 or HLA-DMA, which is a marker for Lgr5-negative cells, also confirmed a correlation between Lgr5 expression and Ki67 staining in xenografts, similarly to the observation using in vitro cultured cells. Specifically, the Lgr5-positive cells were positive for Ki67, while the Lgr5-negative/HLA-DMA-positive cells were negative for Ki67 (FIG. 65).

[4] abbreviates: 120 mg/kg into the peritoneal cavity.

The structures appear in SMILES notation.

Take `Cc1cc([N+](=O)[O-])ccc1NS(=O)(=O)c1cc(Cl)ccc1Cl` [FH535]: in the series on Lgr5-positive colon CSCs [1] (50 μM, three days of culture), the “proliferation of Lgr5-positive colon CSCs” value is “significantly reduced the proliferation”. Besides, the “proliferation of Lgr5-negative colon CSCs” value with Lgr5-negative colon CSCs (50 μM, three days of culture) is “had no effect on the proliferation”.
As for `COc1cc(O)cc(O)c1C(=O)/C=C/c1ccccc1` [cardamonin], the viable cell count with Lgr5-positive colon CSCs [1] (50 μM, three days of culture, Lgr5-positive colon CSCs, relative to DMSO alone) was 70%; with Lgr5-negative colon CSCs (50 μM, three days of culture, Lgr5-negative colon CSCs, relative to DMSO alone), “about 50%”.
With `O=C1[O][Pt]2([NH][C@@H]3CCCC[C@H]3[NH]2)[O]C1=O` [oxaliplatin], the “Lgr5 expression by IHC (antibody 2L36)” value in the series with Lgr5-positive colon CSCs [2] is listed as “most of the Lgr5-positive cells underwent transition into the Lgr5-negative state”.
In the case of `CCc1c2c(nc3ccc(OC(=O)N4CCC(N5CCCCC5)CC4)cc13)-c1cc3c(c(=O)n1C2)COC(=O)[C@]3(O)CC` [irinotecan], the tumor growth entry in series [3] (120 mg/kg (MTD) into the peritoneal cavity, days 12, 15 and 18 after grafting) is reported as “inhibited almost completely”. Besides, in series [3] (setting [4]), the “Lgr5-positive cells in tumor” value is “dramatic decrease”; the “ductal structures of tumor” value is reported as “collapsed extensively”; the “number of Lgr5-negative and HLA-DMA-positive cells in tumor” value was “increased significantly”. Also, in the series with Lgr5-positive colon CSCs [2] (Lgr-negative cells after irinotecan treatment (FIG. 43)), the “level of Lgr5 mRNA (quantitative real-time PCR)” value was “almost undetectable”. For the same compound, the “fluorescence representing Lgr5 positivity” value in the series with Lgr5-positive colon CSCs [2] (PLR123, before vs after irinotecan treatment (FIG. 42)) is “disappeared after the treatment”. For the same compound, the ALDH activity entry in the series on Lgr5-positive colon CSCs [2] (after irinotecan treatment) is “reduced”. In addition, the “Lgr5 state of single Lgr5-positive cells cultured individually” value with Lgr5-positive colon CSCs [2] (multi-well plate, within three days after irinotecan treatment) is recorded as “underwent a transition into the Lgr5-negative state”. Besides, the “Lgr5 state of drug-resistant cells” value in the series with Lgr5-positive colon CSCs [2] was “negative for Lgr5”. For the same compound, in the series with Lgr5-positive colon CSCs [1] (10 μg/ml, three days), the “proliferation of Lgr5-positive colon CSCs” value is given as “significantly inhibited the proliferation”. Moreover, in the series on Lgr5-negative colon CSCs, the “proliferation and survival of Lgr5-negative colon CSCs” value is “did not affect the proliferation and survival”; the “resistance of Lgr5-negative CSCs (percentage of viable cells relative to non-treated control)” value was “fully resistant”.
Turning to `O=c1[nH]cc(F)c(=O)[nH]1` [5-FU, fluorouracil], in the series on Lgr5-positive colon CSCs [2], the “Lgr5 expression by IHC (antibody 2L36)” value is on record as “most of the Lgr5-positive cells underwent transition into the Lgr5-negative state” and the “Lgr5 state of drug-resistant cells” value is listed as “negative for Lgr5”. The “proliferation of Lgr5-positive colon CSCs” value with Lgr5-positive colon CSCs [1] (10 μg/ml, three days) was “significantly inhibited the proliferation”. Besides, in the series on Lgr5-negative colon CSCs, the “proliferation and survival of Lgr5-negative colon CSCs” value is “did not affect the proliferation and survival”; the “resistance of Lgr5-negative CSCs (percentage of viable cells relative to non-treated control)” value is “fully resistant”.

(Values after US10018630B2, “Cancer stem cell isolation” (CHUGAI SEIYAKU KABUSHIKI KAISHA, priority 2011, dated 2018).)
